Experimental data: article PMC10766943, “Synthesis, characterization, Hirshfeld surface analysis, antioxidant and selective β-glucuronidase inhibitory studies of transition metal complexes of hydrazide based Schiff base ligand” (Scientific Reports, 2024)

Columns and labels:
[1] = tested on: β-glucuronidase; details: cited from earlier work
[2] = molecular target: T1, β-glucuronidase enzyme (Bos taurus, UniProt A3KMY8); assay: β-Glucuronidase inhibitory activity (p-nitrophenyl-β-D-glucuronide, 405 nm); assay type: biochemical; details: Conc. 0.05 mM
T1 sequence (A3KMY8 24-652): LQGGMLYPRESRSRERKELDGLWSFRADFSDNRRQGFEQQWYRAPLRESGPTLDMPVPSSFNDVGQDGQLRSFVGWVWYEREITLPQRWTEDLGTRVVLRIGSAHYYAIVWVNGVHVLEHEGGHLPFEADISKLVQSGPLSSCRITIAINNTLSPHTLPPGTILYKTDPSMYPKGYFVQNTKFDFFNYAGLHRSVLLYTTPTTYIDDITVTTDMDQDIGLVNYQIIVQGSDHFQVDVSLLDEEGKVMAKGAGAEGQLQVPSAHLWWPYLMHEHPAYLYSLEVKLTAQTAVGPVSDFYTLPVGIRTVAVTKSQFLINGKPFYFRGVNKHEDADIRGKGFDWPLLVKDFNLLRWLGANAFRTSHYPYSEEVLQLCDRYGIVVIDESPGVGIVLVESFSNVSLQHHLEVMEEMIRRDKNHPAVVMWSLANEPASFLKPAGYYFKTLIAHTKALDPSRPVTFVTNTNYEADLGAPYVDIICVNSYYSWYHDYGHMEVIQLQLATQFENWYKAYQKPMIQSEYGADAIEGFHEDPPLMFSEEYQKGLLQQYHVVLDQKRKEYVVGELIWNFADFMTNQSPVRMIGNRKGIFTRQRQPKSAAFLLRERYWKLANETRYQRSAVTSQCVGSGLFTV
Experimental: β-Glucuronidase inhibitory activity by hydrazide Schiff base ligand (H-AHMB) and its metal (II) complexes was investigated using standard procedure. […] According to the procedure 185 µL of 0.1 M acetate buffer, 5 µL compound to be tested and 10 µL of enzyme solution were mixed and incubated at 37 °C for 30 min. SpectraMax plus 384, Molecular Devices, USA was used to read on a multiplate reader at 405 nm after the addition of 0.4 mM p-nitrophenyl-β-D-glucuronide (50 µL). All experiments were performed in triplicate.

[3] = DPPH radical scavenging; details: for IC50: DPPH scavenging
Experimental: The synthetic Schiff base ligand and its metal complexes were tested for their ability to scavenge DPPH radicals using the methodology described by Soare, Dinis, Cunha, and Almeida in 1997[64]. Initially, 1 mL of 0.2 mM DPPH dissolved in methanol was combined with 0.1 mL of each sample at 250, 500, 750, and 1000 µg/mL concentrations. For 20 min, the reaction mixture was kept at 28 °C and kept in the dark. Methanol served as the control, which had all the components but no sample. A UV/Vis spectrophotometer was used to detect the absorbance at 517 nm in order to assess the DPPH radical scavenging activity. For comparison, the DPPH radical scavenging capacity of ascorbic acid was also determined. %Inhibitioneffect=Ac-As/Ac×100
Ac = Absorbance by the control, As = Absorbance by the sample[37].

[4] = DPPH radical scavenging; details: Conc. 0.05 mM

Row | Compound | inhibition of the β-glucuronidase enzyme [1] | % inhibition [2] [%] | IC50 [3] [µM] | % Radical scavenging activity [4] [%] | antioxidant potential against DPPH free radicals (in words) [3]
1 | CC(=O)O[C@@H]1C(=O)O[C@H]2[C@@H]1OC(=O)[C@@H]2OC(C)=O [2,5-di-O-acetyl-D-glucaro-1,4:6,3-Dilactone] | marked inhibition |  |  |  | 
2 | O=C[C@H](O)[C@H]1OC(=O)[C@@H](O)[C@H]1O [D-glucurono-γ-lactone] | marked inhibition |  |  |  | 
3 | O=C1OC(C(O)C(=O)O)C(O)C1O [D-saccharic acid-1,4-lactone, reference compound] |  | 89.4 |  |  | 
4 | O=C(O)c1cc(O)c(O)c(O)c1 [Gallic acid, reference compound] |  |  | 63 ± 0.43 | 93.13 | 
5 | COc1cc(C=NNC(=O)c2ccccc2N)ccc1O [H-AHMB, N′-[(4-hydroxy-3-methoxyphenyl)methylidene] 2-aminobenzohydrazide] |  |  |  | 22.97 | inactive
6 | Cobalt adduct with N′-[(4-hydroxy-3-methoxyphenyl)methylidene] 2-aminobenzohydrazide [Co-AHMB] |  | 78.8 | 98.2 ± 1.78 | 88.46 | 
7 | Copper adduct with N′-[(4-hydroxy-3-methoxyphenyl)methylidene] 2-aminobenzohydrazide [Cu-AHMB] |  | 73.3 | 183 ± 6.6 | 84.29 | 
8 | Nickel adduct with N′-[(4-hydroxy-3-methoxyphenyl)methylidene] 2-aminobenzohydrazide [Ni-AHMB] |  | 96.0 | 467 ± 2.9 | 52.40 | 
9 | Zinc adduct with N′-[(4-hydroxy-3-methoxyphenyl)methylidene] 2-aminobenzohydrazide [Zn-AHMB] |  | 98.3 |  | 49.16 | 
